From patent US20230110378A1, “MONOBACTAM COMPOUND AND USE THEREOF” (EVOPOINT BIOSCIENCES CO., LTD., priority 2019, published 2023)
≈ marks a conversion by molar mass, not a printed value.

Legend:
Assay in all cases: Minimum inhibitory concentration (broth microdilution, CLSI)
Assay type in all cases: cell-based
[1] = tested on: Escherichia coli HDBEC 30016; settings: HDBEC30016
Procedure: (§1) 103 bacterial strains used for the minimum inhibitory concentration test were frozen in a −80° C. ULT freezer and thawed 2 days before use. A small amount of frozen microorganism bacteria were scraped using a sterile inoculating loop, streaked onto a suitable solid culture dish for inoculation, and then cultured for about 20 h at 35 t 2° C. in a normal incubator. • Proteus mirabilis HDBPM 40: MA, normal atmospheric environment • The remaining 102 strains of bacteria: TSA, normal atmospheric environment
(§2) 5-10 colonies with similar morphology were picked from the culture dish using a sterile inoculating loop and then re-streaked onto a corresponding solid culture dish. Then the dish was incubated in a normal incubator at 35 t 2° C. for about 20 h.
(§3) 5-10 single microbial colonies were picked from the solid culture dish, resuspended in 500 μL of sterile normal saline (0.9% NaCl), and adjusted to an OD600 of about 0.15 with a spectrophotometer.
(§4) The bacteria were then diluted 300-fold with 1.02×CAMHB to an inoculation concentration of 2×10^5 CFU/mL.
(§5) • There were a total of 3 assay plate patterns, one of which was used for each assay. • 8 rows of the assay plate (rows A-H) were for 8 test compounds, respectively. The highest test concentration of the compounds was 16, 32 or 64 μg/mL, and each compound was diluted 2-fold. • Growth control (GC): a medium containing microbial inoculum (1.02×CAMHB) and dimethylsulfoxide (DMSO) but no compound.
(§6) The test and reference compounds were dissolved in DMSO or H2O to prepare 6.4 mg/mL stock solutions. The stock solutions were diluted to prepare standby solutions with certain concentrations, and the volumes of the standby solutions were determined according to the experimental design. Corresponding volumes of the standby solutions were transferred to the starting wells of a dilution plate (A1-H1), and half the starting-well volume of DMSO to the other wells. Each compound was diluted 2-fold sequentially from column 1 to column 11 (e.g., transferring 30 μL of DMSO to columns 2-12 first, then pipetting 30 μL of the compounds from column 1 to column 2 and mixing them well, then pipetting 30 μL of the compounds from column 2 to column 3 and mixing them well, then pipetting 30 μL of the compounds from column 3 to column 4 and mixing them well, and so on to column 11).
(§7) 1 or 2 μL of the compounds and DMSO were transferred from the compound plate to corresponding wells of the assay plates.
(§8) 98 μL of corresponding bacterial inocula were added to the assay plates.
(§9) After addition, the assay plates were covered with sterile covers. The mixtures in the assay plates were centrifuged in a centrifuge at 800 rpm for 30 s, mixed well on a microplate shaker at 400 rpm for 1 min, and incubated in a normal incubator at 35 t 2° C. for 20-24 h.
(§10) The assay plates were placed on a plate reading device, and the speculum was adjusted to observe and record the growth condition of bacteria in each well. In the mean time, each assay plate was photographed with QCount system.
(§11) The minimum inhibitory concentration of each compound was recorded by reference to guidelines from the Clinical and Laboratory Standards Institute.
(§12) The minimum inhibitory concentrations of the compounds against experimental strains were tested in this study by reference to the medium microdilution method as indicated by the Clinical and Laboratory Standards Institute. Compounds were diluted two-fold in 96-well plates from the highest detection concentration of 16, 32 or 64 μg/mL. The bacterial inocula in the assay plates were thawed from corresponding medium plates and diluted in 1.02×CAMHB, while growth controls (GC wells) were set up in the assay plates. The minimum inhibitory concentration of each compound against different bacteria was observed and recorded after the assay plates were incubated in a normal incubator at 35 t 2° C. for about 20 h. The minimum inhibitory concentration values for the different compounds are listed in the list below.

[2] = tested on: Klebsiella pneumoniae HDBKP 30006; settings: HDBKP30006
Procedure: as §1, §2, §3, §4, §5, §6, §7, §8, §9, §10, §11, §12

[3] = tested on: Escherichia coli HDBEC 30048; settings: HDBEC30048
Procedure: as §1, §2, §3, §4, §5, §6, §7, §8, §9, §10, §11, §12

[4] = tested on: Pseudomonas aeruginosa HDBPA 5679; settings: HDBPA5679
Procedure: as §1, §2, §3, §4, §5, §6, §7, §8, §9, §10, §11, §12

[5] = tested on: Proteus mirabilis HDBPM 40; settings: HDBPM40
Procedure: as §1, §2, §3, §4, §5, §6, §7, §8, §9, §10, §11, §12

[6] = tested on: Klebsiella pneumoniae HDBKP 9153; settings: HDBKP9153
Procedure: as §1, §2, §3, §4, §5, §6, §7, §8, §9, §10, §11, §12

[7] = tested on: Klebsiella pneumoniae HDBKP 9249; settings: HDBKP9249
Procedure: as §1, §2, §3, §4, §5, §6, §7, §8, §9, §10, §11, §12

[8] = tested on: Enterobacter cloacae HDBECL 30030; settings: HDBECL30030
Procedure: as §1, §2, §3, §4, §5, §6, §7, §8, §9, §10, §11, §12

[9] = tested on: Escherichia coli HDBEC 30008; settings: HDBEC30008
Procedure: as §1, §2, §3, §4, §5, §6, §7, §8, §9, §10, §11, §12

| SMILES | MIC [1] [µg/mL] | MIC [2] [µg/mL] | MIC [3] [µg/mL] | MIC [4] [µg/mL] | MIC [5] [µg/mL] | MIC [6] [µg/mL] | MIC [7] [µg/mL] | MIC [8] [µg/mL] | MIC [9] [µg/mL] |
| --- | --- | --- | --- | --- | --- | --- | --- | --- | --- |
| CC(C)(O/N=C(\C(=O)N[C@H]1C(=O)N(S(=O)(=O)O)[C@H]1CNC(=O)c1cc([C@@H]2CCN(C(=O)c3ccc(O)c(O)c3Cl)C2)no1)c1csc(N)n1)C(=O)O [Compound I-18] | 8 to 16 (≈ 10.2 to 20.4 µM) | > 16 | < 4 | 4 to 8 (≈ 5.09 to 10.2 µM) | < 4 | 4 to 8 (≈ 5.09 to 10.2 µM) | > 16 | < 4 | < 4 |
| C[n+]1cc(-c2ncc(C(=O)NC[C@@H]3[C@H](NC(=O)/C(=N\OC(C)(C)C(=O)O)c4csc(N)n4)C(=O)N3S(=O)(=O)O)s2)cn1CCCNC(=N)N [Compound I-11] | 8 to 16 | < 4 | 8 to 16 | > 16 | < 4 | < 4 | < 4 | < 4 | < 4 |
| CC(C)(O/N=C(\C(=O)N[C@@H]1C(=O)N(S(=O)(=O)O)[C@@H]1CNC(=O)c1cc(-c2cc[n+](CCNC(=N)N)cc2)no1)c1csc(N)n1)C(=O)O [Compound I-3] | > 16 | 4 to 8 | > 16 | > 16 | < 4 | > 16 | < 4 | < 4 | < 4 |
| C[n+]1cc(-c2ncc(C(=O)NC[C@@H]3[C@H](NC(=O)/C(=N\OC(C)(C)C(=O)O)c4nsc(N)n4)C(=O)N3S(=O)(=O)O)s2)cn1CCCN [Compound I-16] | > 16 | > 16 | > 16 | > 16 | < 4 | > 16 | 8 to 16 | > 16 | 8 to 16 |
| CC(C)(O/N=C(\C(=O)N[C@@H]1C(=O)N(S(=O)(=O)O)[C@@H]1CNC(=O)c1cc(-c2cc[n+](CCN)cc2)no1)c1csc(N)n1)C(=O)O [Compound I-4] | > 16 | > 16 | > 16 | > 16 | < 4 | > 16 | < 4 | 4 to 8 | 4 to 8 |
| C[n+]1cc(C(=O)NC[C@@H]2[C@H](NC(=O)/C(=N\OC(C)(C)C(=O)O)c3csc(N)n3)C(=O)N2S(=O)(=O)O)sc1-c1cnn(CC(N)CN)c1 (stereo partly drawn) [Compound I-13] | > 16 | 8 to 16 | > 16 | > 16 | < 4 | 4 to 8 | < 4 | 4 to 8 | 8 to 16 |
| CC(C)(O/N=C(\C(=O)N[C@@H]1C(=O)N(S(=O)(=O)O)[C@@H]1CNC(=O)c1cc(C2CNC2)no1)c1csc(N)n1)C(=O)O [Compound I-6] | > 16 | > 16 | > 16 | > 16 | < 4 | > 16 | < 4 | < 4 | < 4 |

The next lines start with the values.

| MIC [1] [µg/mL] | MIC [2] [µg/mL] | MIC [3] [µg/mL] | MIC [4] [µg/mL] | MIC [5] [µg/mL] | MIC [6] [µg/mL] | MIC [7] [µg/mL] | MIC [8] [µg/mL] | MIC [9] [µg/mL] | SMILES |
| --- | --- | --- | --- | --- | --- | --- | --- | --- | --- |
| < 4 | 8 to 16 (≈ 10.2 to 20.4 µM) | < 4 | < 4 | < 4 | < 4 | < 4 | < 4 | < 4 | Nc1nc(/C(=N/OC2(C(=O)O)CC2)C(=O)N[C@@H]2C(=O)N(S(=O)(=O)O)[C@@H]2CNC(=O)c2cc([C@@H]3CCN(C(=O)c4ccc(O)c(O)c4Cl)C3)no2)cs1 [Compound I-23] |
| 4 to 8 (≈ 5.22 to 10.4 µM) | > 16 | < 4 | < 4 | < 4 | < 4 | 4 to 8 (≈ 5.22 to 10.4 µM) | < 4 | < 4 | Nc1nc(/C(=N/OC2(C(=O)O)CC2)C(=O)N[C@@H]2C(=O)N(S(=O)(=O)O)[C@@H]2CNC(=O)c2cc([C@H]3CCN(C(=O)c4cc(=O)c(O)cn4O)C3)no2)cs1 [Compound I-25] |
| > 16 | > 16 | > 16 | > 16 | 4 to 8 (≈ 4.99 to 9.97 µM) | > 16 | > 16 | > 16 | > 16 | CC(C)(O/N=C(\C(=O)N[C@H]1C(=O)N(S(=O)(=O)O)[C@H]1CNC(=O)c1cc([C@@H]2CCN(C(=O)c3cc(=O)c(O)cn3O)C2)no1)c1nc(N)sc1Cl)C(=O)O [Compound I-26] |
| > 16 | > 16 | 8 to 16 | 8 to 16 | < 4 | 8 to 16 | > 16 | < 4 | < 4 | CC(C)(O/N=C(\C(=O)N[C@H]1C(=O)N(S(=O)(=O)O)[C@H]1CNC(=O)c1cc([C@@H]2CC[N+](C)(CCNC(=O)c3ccc(O)c(O)c3Cl)C2)no1)c1csc(N)n1)C(=O)O (stereo partly drawn) [Compound I-20] |
| < 4 | 8 to 16 | < 4 | < 4 | < 4 | < 4 | 8 to 16 | < 4 | < 4 | CC(C)(O/N=C(\C(=O)N[C@@H]1C(=O)N(S(=O)(=O)O)[C@@H]1CNC(=O)c1cnc([C@@H]2CC[N+](C)(C[C@H](N)CNC(=O)c3ccc(O)c(O)c3Cl)C2)s1)c1csc(N)n1)C(=O)O (stereo partly drawn) [Compound I-38] |
| 8 to 16 (≈ 9.54 to 19.1 µM) | 8 to 16 (≈ 9.54 to 19.1 µM) | < 4 | < 4 | < 4 | < 4 | 8 to 16 (≈ 9.54 to 19.1 µM) | < 4 | < 4 | Cc1c(C(=O)NCCN2CC[C@@H](c3cc(C(=O)NC[C@@H]4[C@H](NC(=O)/C(=N\OC(C)(C)C(=O)O)c5csc(N)n5)C(=O)N4S(=O)(=O)O)on3)C2)n(O)c(C)c(O)c1=O [Compound I-45] |
